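Results reflect a 48-hour exposure of cells in 96-well plates to compound at five concentrations. GI50 is the concentration that inhibits growth by half. TGI denotes the concentration required for complete inhibition of growth.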

Among the test systems are SK-MEL-2 melanoma; 786-0 renal; CCRF-CEM leukemia; HOP-62 NSCLC; NCI-H226 lung; A498 renal; HOP-92 NSCLC; TK-10 renal; OVCAR-8 ovarian.
Holding throughout (assay): DTP human tumour cell line panel, 48 h

Usually TGI stands for the concentration at which net growth stops. A low value points to more potent growth arrest. As for `COc1ccc(NC(=O)CC/C(CC(=O)c2ccco2)=N/Nc2ccc([N+](=O)[O-])cc2[N+](=O)[O-])cc1`, the TGI with SK-MEL-2 melanoma is greater than 100 µM; in the experiment on 786-0 renal, greater than 100 µM; in the experiment with CCRF-CEM leukemia it was 85.1 µM; with HOP-62 NSCLC, greater than 100 µM; in the experiment with NCI-H226 lung, greater than 100 µM; in the experiment with A498 renal it was greater than 100 µM. Also, the TGI in the experiment with HOP-92 NSCLC, in the experiment with TK-10 renal and with OVCAR-8 ovarian was greater than 100 µM in each case.
Usually GI50 stands for the concentration giving 50% growth inhibition. Regarding `CC/C(=C(\c1ccccc1)c1ccc(OCCN(C)C)cc1)c1ccccc1`, the GI50 in the experiment with 786-0 renal was 2.96 µM; in the experiment on CCRF-CEM leukemia, 2.33 µM; with A498 renal, 2.3 µM; with HOP-92 NSCLC, 1.43 µM; with OVCAR-8 ovarian, 5.35 µM.
On to `CC(C)NC(=O)OCc1nnn2c1C(OC(=O)NC(C)C)CC2` (centres undefined), for which the TGI in the experiment on SK-MEL-2 melanoma, with 786-0 renal, in the experiment on NCI-H226 lung, with HOP-92 NSCLC, in the experiment with TK-10 renal and in the experiment with OVCAR-8 ovarian was greater than 100 µM each time.
On to `Cc1ccc(S(=O)(=O)NCCCN(CCCNS(=O)(=O)c2ccc(C)cc2)S(=O)(=O)c2ccc(C)cc2)cc1`, for which the TGI in the experiment with 786-0 renal, in the experiment on CCRF-CEM leukemia, with HOP-62 NSCLC, with NCI-H226 lung, with TK-10 renal and in the experiment on OVCAR-8 ovarian was greater than 100 µM throughout.
As for `C=CCCc1cc(OC)ccc1CN(C)C(C)(C)CO`, the concentration for total growth inhibition (TGI) in the experiment with SK-MEL-2 melanoma, in the experiment on 786-0 renal, with CCRF-CEM leukemia, in the experiment with HOP-62 NSCLC, with A498 renal and with HOP-92 NSCLC was greater than 100 µM each time. Moreover, the TGI with TK-10 renal and in the experiment with OVCAR-8 ovarian was greater than 100 µM each time.
Consider `COCCNC(=O)C1C(=O)N(CCOC)C(=O)/C1=N/N` (centres undefined), for which the TGI in the experiment with SK-MEL-2 melanoma, in the experiment on 786-0 renal, in the experiment with CCRF-CEM leukemia, in the experiment with NCI-H226 lung, with HOP-92 NSCLC and with TK-10 renal was greater than 100 µM each time.
`COC1OC(OC)C2C(c3c(C)cc(C)cc3C)=NOC12` (centres undefined): the TGI in the experiment on SK-MEL-2 melanoma, with 786-0 renal, with CCRF-CEM leukemia, with HOP-62 NSCLC, in the experiment with NCI-H226 lung and in the experiment on HOP-92 NSCLC was greater than 100 µM throughout. In addition, the TGI in the experiment with TK-10 renal and with OVCAR-8 ovarian was greater than 100 µM each time.
Regarding `COc1ccc(C(=O)O/N=C2\CCCC\C2=C/c2ccccc2)cc1`, the TGI with 786-0 renal, in the experiment with CCRF-CEM leukemia, with HOP-62 NSCLC, in the experiment with A498 renal, with TK-10 renal and in the experiment with OVCAR-8 ovarian was greater than 100 µM each time.
As for `CCCCN(CCCC)C(=Nc1ccccc1)N(CCCC)CCCC`, the TGI in the experiment on SK-MEL-2 melanoma is 18.9 µM; in the experiment with 786-0 renal, 15.2 µM; with CCRF-CEM leukemia it was 24.4 µM; with HOP-62 NSCLC, 20.5 µM; in the experiment on A498 renal, 37.8 µM; with HOP-92 NSCLC it was 7.06 µM. Further, the total growth inhibition concentration (TGI) came out at 34.4 µM in the experiment on TK-10 renal and 24.9 µM in the experiment on OVCAR-8 ovarian.
`N#Cc1c([N+](=O)[O-])cc(C(F)(F)F)cc1[N+](=O)[O-]`: the TGI was 39.3 µM with SK-MEL-2 melanoma; 12.7 µM in the experiment with 786-0 renal; 32.8 µM with HOP-62 NSCLC; 37.3 µM in the experiment with NCI-H226 lung; 32.9 µM with A498 renal; 4.01 µM in the experiment on HOP-92 NSCLC. The results for the TGI in the experiment on TK-10 renal and in the experiment on OVCAR-8 ovarian were 18.1 µM and 4.36 µM, respectively.
On to `c1ccc([CH2][Sn]([CH2]c2ccccc2)([S]c2cccc3cccnc23)[S]c2cccc3cccnc23)cc1`, for which the 50% growth inhibitory concentration (GI50) was 0.314 µM with 786-0 renal; 0.102 µM in the experiment with CCRF-CEM leukemia; 0.764 µM with HOP-62 NSCLC; 0.288 µM in the experiment on A498 renal; 0.326 µM in the experiment on TK-10 renal; 0.361 µM in the experiment on OVCAR-8 ovarian. Further, the TGI in the experiment on 786-0 renal was found to be 1.05 µM; with CCRF-CEM leukemia it was 0.686 µM; in the experiment with HOP-62 NSCLC, 6.94 µM; in the experiment on A498 renal, 0.95 µM; in the experiment on TK-10 renal, 1.06 µM; in the experiment with OVCAR-8 ovarian, 1.4 µM.
As for `C=C1C(=O)OC2C1C(OC(=O)/C(=C/C)COC(C)=O)CC1(CO1)C1C(OC(=O)/C(=C/C)CO)C=C(C)C21` (centres undefined), the TGI worked out at 3.63 µM in the experiment on SK-MEL-2 melanoma; 3.09 µM in the experiment with 786-0 renal; 2.13 µM in the experiment on CCRF-CEM leukemia; 4.18 µM in the experiment on NCI-H226 lung; 8.94 µM in the experiment on A498 renal; 6.05 µM in the experiment on TK-10 renal. For the same compound, the TGI with OVCAR-8 ovarian is 25.3 µM.
Consider `CN(C)CCCn1cnc2ncccc2c1=O`, for which the TGI with SK-MEL-2 melanoma, in the experiment with 786-0 renal, in the experiment with CCRF-CEM leukemia, in the experiment with HOP-62 NSCLC, with NCI-H226 lung and in the experiment on HOP-92 NSCLC was greater than 100 µM in each case. Besides, the TGI in the experiment on TK-10 renal and in the experiment on OVCAR-8 ovarian was greater than 100 µM each time.
In the case of `Cc1c(C(=O)/C=C/c2ccco2)[n+](=O)c2ccccc2n1[O-]`, the TGI in the experiment with 786-0 renal, with CCRF-CEM leukemia, with NCI-H226 lung, in the experiment on A498 renal, in the experiment with HOP-92 NSCLC and in the experiment on TK-10 renal was greater than 100 µM each time. Moreover, the TGI with OVCAR-8 ovarian is greater than 100 µM.
As for `CN1CCC(O)C(CNC23CC4CC(CC(C4)C2)C3)C1` (centres undefined), the TGI in the experiment on SK-MEL-2 melanoma, in the experiment on 786-0 renal, in the experiment on CCRF-CEM leukemia, in the experiment with HOP-62 NSCLC, in the experiment on NCI-H226 lung and with A498 renal was greater than 100 µM each time. Also, the TGI in the experiment on HOP-92 NSCLC, in the experiment on TK-10 renal and in the experiment with OVCAR-8 ovarian was greater than 100 µM throughout.
In the case of `CCCOC(=O)C1CCC(=O)N1C(=O)C(Cl)Cl` (centres undefined), the TGI in the experiment with SK-MEL-2 melanoma, with 786-0 renal, with CCRF-CEM leukemia, in the experiment with HOP-62 NSCLC, in the experiment with NCI-H226 lung and with A498 renal was greater than 100 µM each time. In addition, the TGI in the experiment on HOP-92 NSCLC, in the experiment on TK-10 renal and in the experiment on OVCAR-8 ovarian was greater than 100 µM throughout.
As to `CCS[C@H]1NC(=O)C1[C@H](C)O[Si](C)(C)C(C)(C)C` (some centres undefined), the total growth inhibition concentration (TGI) in the experiment on SK-MEL-2 melanoma, with 786-0 renal, with HOP-62 NSCLC, in the experiment on A498 renal, with HOP-92 NSCLC and with TK-10 renal was greater than 100 µM each time. This compound yielded a total growth inhibition concentration (TGI) with OVCAR-8 ovarian greater than 100 µM.

(Values after PubChem BioAssay (NCI).)
